# Read-outs that look alike come from different tables or passages of the source.
# Experiments:
# [1] = test system: OVCAR-5; conditions: for CC50: read-out: LC50
# [2] = test system: HS 578T; conditions: 48 h; for CC50: read-out: LC50
# [3] = test system: NCI-H460; conditions: for CC50: read-out: LC50
# [4] = test system: OVCAR-8; conditions: for CC50: read-out: LC50
# [5] = test system: COLO 205; conditions: for CC50: read-out: LC50
# [6] = test system: M14; conditions: for CC50: read-out: LC50
# [7] = test system: NCI-H23; format: cell-based; conditions: NCI-H23, Non-Small Cell Lung, 48 h
# [8] = test system: UACC-257; conditions: for CC50: read-out: LC50
# [9] = test system: UO-31; conditions: for CC50: read-out: LC50
# [10] = test system: MOLT-4; conditions: for CC50: read-out: LC50
# [11] = test system: DU-145; conditions: DU-145, Prostate, NCI database, cited from earlier work; for CC50: read-out: LC50 (the source's name)
# [12] = test system: TK-10; conditions: TK-10, Renal, NCI database, cited from earlier work; for CC50: read-out: LC50 (the source's name)
# [13] = cited from earlier work
# [14] = test system: BT-549; conditions: BT-549, Breast, NCI database, cited from earlier work; for CC50: read-out: LC50 (the source's name)
# [15] = test system: MOLT-4; conditions: MOLT-4, Leukemia, NCI database, cited from earlier work; for CC50: read-out: LC50 (the source's name)
# [16] = test system: PC-3; conditions: PC-3, Prostate, NCI database, cited from earlier work; for CC50: read-out: LC50 (the source's name)
# [17] = test system: MALME-3M; conditions: Melanoma, NCI database, cited from earlier work; for CC50: read-out: LC50 (the source's name)
# [18] = test system: UACC-257; conditions: UACC-257, Melanoma, NCI database, cited from earlier work; for CC50: read-out: LC50 (the source's name)
# [19] = test system: NCI-H460; conditions: NCI-H460, Non-Small Cell Lung, NCI database, cited from earlier work; for CC50: read-out: LC50 (the source's name)
# [20] = test system: SK-MEL-28; conditions: SK-MEL-28, Melanoma, NCI database, cited from earlier work; for CC50: read-out: LC50 (the source's name)
# [21] = test system: 786-0; conditions: 786-0, Renal, NCI database, cited from earlier work; for CC50: read-out: LC50 (the source's name)
# [22] = test system: OVCAR-8; conditions: OVCAR-8, Ovarian, NCI database, cited from earlier work; for CC50: read-out: LC50 (the source's name)
# [23] = test system: HOP-92; conditions: HOP-92, Non-Small Cell Lung, NCI database, cited from earlier work; for CC50: read-out: LC50 (the source's name)
# [24] = test system: LOX IMVI; conditions: Melanoma, NCI database, cited from earlier work; for CC50: read-out: LC50 (the source's name)
# [25] = test system: OVCAR-5; conditions: OVCAR-5, Ovarian, NCI database, cited from earlier work; for CC50: read-out: LC50 (the source's name)
# [26] = test system: HT29; conditions: HT29, Colon, NCI database, cited from earlier work; for CC50: read-out: LC50 (the source's name)
# [27] = test system: MDA-MB-435; conditions: MDA-MB-435, Breast, NCI database, cited from earlier work; for CC50: read-out: LC50 (the source's name)
# [28] = NCI-H460, Non-Small Cell Lung, 48 h
smiles,measurement,setting,value
"CC(=O)C=CSc1ncnc2nc[nH]c12 [cis-AVTP, 6-(2-acetylvinylthio) purine]",GI50,"[1]; Homo sapiens, OVCAR-5, 48 h",1.31 µM
same,CC50,"[1]; Homo sapiens, OVCAR-5, 48 h",6.57 µM
same,TGI,"[1]; OVCAR-5, Ovarian, 48 h",2.94 µM
same,TGI,"[2]; HS 578T, Breast",8.79 µM
same,GI50,"[2]; Homo sapiens, Hs-578T",0.46 µM
same,CC50,"[2]; Homo sapiens, Hs-578T",> 100 µM
same,GI50,"[3]; Homo sapiens, NCI-H460, 48 h",0.68 µM
same,CC50,"[3]; Homo sapiens, NCI-H460, 48 h",38.6 µM
same,TGI,[3]; [28],8.71 µM
same,GI50,"[4]; Homo sapiens, OVCAR-8, 48 h",1.53 µM
same,CC50,"[4]; Homo sapiens, OVCAR-8, 48 h",> 100 µM
same,TGI,"[4]; OVCAR-8, Ovarian, 48 h",5.93 µM
same,TGI,"[5]; COLO 205, Colon, 48 h",1.70 µM
same,GI50,"[5]; Homo sapiens, COLO 205, 48 h",0.46 µM
same,CC50,"[5]; Homo sapiens, COLO 205, 48 h",4.74 µM
same,GI50,"[6]; Homo sapiens, M14, 48 h",0.07 µM
same,CC50,"[6]; Homo sapiens, M14, 48 h",7.75 µM
same,TGI,"[6]; M14, Melanoma, 48 h",1.89 µM
same,GI50,[7]; Homo sapiens,1.48 µM
same,CC50,"[7]; Homo sapiens, read-out: LC50 (the source's name)",27.8 µM
same,TGI,[7],4.58 µM
same,GI50,"[8]; Homo sapiens, UACC-257, 48 h",2.4 µM
same,CC50,"[8]; Homo sapiens, UACC-257, 48 h",> 100 µM
same,TGI,"[8]; UACC-257, Melanoma, 48 h",27.4 µM
same,GI50,"[9]; Homo sapiens, UO-31, 48 h",0.6 µM
same,CC50,"[9]; Homo sapiens, UO-31, 48 h",4.48 µM
same,TGI,"[9]; UO-31, Renal, 48 h",1.85 µM
same,GI50,"[10]; Homo sapiens, MOLT-4, 48 h",0.36 µM
same,CC50,"[10]; Homo sapiens, MOLT-4, 48 h",> 100 µM
same,TGI,"[10]; MOLT-4, Leukemia, 48 h",>100 µM
"CC(=O)C=CSc1nc(N)nc2nc[nH]c12 [trans-AVTG, 6-(2-acetylvinylthio) guanine]",GI50,"[1]; OVCAR-5, Ovarian, 48 h",0.54 µM
same,TGI,"[1]; OVCAR-5, Ovarian, 48 h",6.04 µM
same,CC50,"[1]; OVCAR-5, Ovarian, 48 h",57.7 µM
same,GI50,"[2]; HS 578T, Breast",1.78 µM
same,TGI,"[2]; HS 578T, Breast",26.9 µM
same,CC50,"[2]; HS 578T, Breast",> 100 µM
same,GI50,[3]; [28],0.59 µM
same,TGI,[3]; [28],3.57 µM
same,CC50,[3]; [28],49.4 µM
same,GI50,"[4]; OVCAR-8, Ovarian, 48 h",0.55 µM
same,TGI,"[4]; OVCAR-8, Ovarian, 48 h",>100 µM
same,CC50,"[4]; OVCAR-8, Ovarian, 48 h",> 100 µM
same,GI50,"[5]; COLO 205, Colon, 48 h",1.87 µM
same,TGI,"[5]; COLO 205, Colon, 48 h",3.98 µM
same,CC50,"[5]; COLO 205, Colon, 48 h",8.43 µM
same,GI50,"[6]; M14, Melanoma, 48 h",0.45 µM
same,TGI,"[6]; M14, Melanoma, 48 h",12.0 µM
same,CC50,"[6]; M14, Melanoma, 48 h",53.5 µM
same,GI50,[7],3.05 µM
same,TGI,[7],16.3 µM
same,GI50,"[8]; UACC-257, Melanoma, 48 h",11.6 µM
same,TGI,"[8]; UACC-257, Melanoma, 48 h",>100 µM
same,CC50,"[8]; UACC-257, Melanoma, 48 h",> 100 µM
same,GI50,"[9]; UO-31, Renal, 48 h",0.62 µM
same,TGI,"[9]; UO-31, Renal, 48 h",11.9 µM
same,CC50,"[9]; UO-31, Renal, 48 h",39.1 µM
same,GI50,"[10]; MOLT-4, Leukemia, 48 h",0.7 µM
same,TGI,"[10]; MOLT-4, Leukemia, 48 h",>100 µM
same,CC50,"[10]; MOLT-4, Leukemia, 48 h",> 100 µM
"Nc1nc2nc[nH]c2c(=S)[nH]1 [6-TG, 6-thioguanine]",GI50,[11],0.78 µM
same,TGI,[11],>100 µM
same,CC50,[11],> 100 µM
same,GI50,[12],1.04 µM
same,TGI,[12],78.3 µM
same,CC50,[12],> 100 µM
same,dose absorbed after oral administration,[13],up to 46%
same,GI50,[14],3.59 µM
same,TGI,[14],>100 µM
same,CC50,[14],> 100 µM
same,GI50,[15],0.27 µM
same,TGI,[15],15.4 µM
same,CC50,[15],> 100 µM
same,GI50,[16],1.77 µM
same,TGI,[16],>100 µM
same,CC50,[16],> 100 µM
same,CC50,[17],> 100 µM
same,GI50,[17],1.34 µM
same,TGI,[17],28.6 µM
same,GI50,[18],1.98 µM
same,TGI,[18],95.7 µM
same,CC50,[18],> 100 µM
same,GI50,[19],0.66 µM
same,TGI,[19],20.0 µM
same,CC50,[19],> 100 µM
same,GI50,[20],8.91 µM
same,TGI,[20],>100 µM
same,CC50,[20],> 100 µM
same,GI50,[21],0.82 µM
same,TGI,[21],>100 µM
same,CC50,[21],> 100 µM
same,GI50,[22],0.69 µM
same,TGI,[22],60.0 µM
same,CC50,[22],> 100 µM
same,GI50,[23],0.73 µM
same,TGI,[23],24.0 µM
same,CC50,[23],> 100 µM
same,CC50,[24],> 100 µM
same,GI50,[24],0.21 µM
same,TGI,[24],8.99 µM
same,GI50,[25],0.65 µM
same,TGI,[25],47.5 µM
same,CC50,[25],> 100 µM
same,GI50,[26],1.13 µM
same,TGI,[26],>100 µM
same,CC50,[26],> 100 µM
same,GI50,[27],0.84 µM
same,TGI,[27],31.9 µM
same,CC50,[27],> 100 µM
"Sc1ncnc2nc[nH]c12 [6-MP, 6-mercaptopurine]",GI50,[11],1.73 µM
same,TGI,[11],>100 µM
same,CC50,[11],> 100 µM
same,GI50,[12],1.83 µM
same,TGI,[12],>100 µM
same,CC50,[12],> 100 µM
same,dose absorbed after oral administration,[13],≤ 37%
same,GI50,[14],> 100 µM
same,TGI,[14],>100 µM
same,CC50,[14],> 100 µM
same,GI50,[15],1.51 µM
same,TGI,[15],>100 µM
same,CC50,[15],> 100 µM
same,GI50,[16],3.81 µM
same,TGI,[16],>100 µM
same,CC50,[16],> 100 µM
same,CC50,[17],> 100 µM
same,GI50,[17],4.28 µM
same,TGI,[17],>100 µM
same,GI50,[18],14.2 µM
same,TGI,[18],>100 µM
same,CC50,[18],> 100 µM
same,GI50,[19],5.6 µM
same,TGI,[19],>100 µM
same,CC50,[19],> 100 µM
same,GI50,[20],> 100 µM
same,TGI,[20],>100 µM
same,CC50,[20],> 100 µM
same,GI50,[21],1.87 µM
same,TGI,[21],>100 µM
same,CC50,[21],> 100 µM
same,GI50,[22],2.44 µM
same,TGI,[22],>100 µM
same,CC50,[22],> 100 µM
same,GI50,[23],2.6 µM
same,TGI,[23],>100 µM
same,CC50,[23],> 100 µM
same,CC50,[24],> 100 µM
same,GI50,[24],0.35 µM
same,TGI,[24],>100 µM
same,GI50,[25],7.85 µM
same,TGI,[25],>100 µM
same,CC50,[25],> 100 µM
same,GI50,[26],3.97 µM
same,TGI,[26],>100 µM
same,CC50,[26],> 100 µM
same,GI50,[27],1.4 µM
same,TGI,[27],>100 µM
same,CC50,[27],> 100 µM

# Source: patent US20040023994A1 (priority 2002, published 2004)
